The target of one experiment is T1, complex of human CDK4 and cyclin D3 (Homo sapiens, UniProt P11802).
T1 construct: made in house; host or cells: insect cells, co-infected with baculovirus
T1 sequence (P11802 whole entry): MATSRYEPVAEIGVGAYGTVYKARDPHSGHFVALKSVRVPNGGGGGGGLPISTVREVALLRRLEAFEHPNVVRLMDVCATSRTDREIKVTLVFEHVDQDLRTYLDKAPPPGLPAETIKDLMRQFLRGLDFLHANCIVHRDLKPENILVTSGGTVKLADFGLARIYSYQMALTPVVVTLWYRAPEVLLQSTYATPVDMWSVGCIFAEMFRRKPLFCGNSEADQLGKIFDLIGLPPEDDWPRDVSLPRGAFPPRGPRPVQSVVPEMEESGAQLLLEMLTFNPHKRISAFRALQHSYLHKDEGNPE
T1 sequence (P30281 whole entry partner): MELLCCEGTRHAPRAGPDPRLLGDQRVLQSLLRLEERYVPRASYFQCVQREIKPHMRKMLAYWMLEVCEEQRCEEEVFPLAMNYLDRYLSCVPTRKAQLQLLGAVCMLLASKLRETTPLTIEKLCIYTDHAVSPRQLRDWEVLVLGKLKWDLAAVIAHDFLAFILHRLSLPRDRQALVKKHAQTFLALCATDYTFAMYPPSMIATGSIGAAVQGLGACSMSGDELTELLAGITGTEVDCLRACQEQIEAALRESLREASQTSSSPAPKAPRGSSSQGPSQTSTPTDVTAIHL
Nature of the experiment: Inhibition of CDK4/cyclin D retinoblastoma kinase activity (D-type cyclin is D3). It is filed as biochemical. Particulars: superscript a: D-type cyclin is D3; apparent Ki; read-out: Ki CDK 4/D. On the procedure:
Cyclin-dependent kinase activity was measured by quantifying the enzyme-catalyzed, time-dependent incorporation of radioactive phosphate from [^32P]ATP or [^33P]ATP into a protein substrate. […] Reactions were initiated with enzyme, incubated at 30° C., and terminated after 20 minutes by the addition of ethylenediaminetetraacetic acid (EDTA) to 250 mM. […] Radioactivity was quantified by exposing the dried membranes to a phosphorimager.
Apparent Ki values were measured by assaying enzyme activity in the presence of different inhibitor compound concentrations and subtracting the background radioactivity measured in the absence of enzyme. The kinetic parameters (kcat, Km for ATP) were measured for each enzyme under the usual assay conditions by determining the dependence of initial rates on ATP concentration. Inhibition data were fit to an equation for competitive inhibition using Kaleidagraph (Synergy Software), or were fit to an equation for competitive tight-binding inhibition using the software KineTic (BioKin, Ltd.).
Phosphorylated Rb substrate was captured by microfiltration on a nitrocellulose membrane and quantified using a phosphorimager as described above. For measurement of tight-binding inhibitors, the enzyme complex concentration was lowered to 5 nM, and the assay duration was extended to 60 minutes, during which the time-dependence of product formation was linear.
`Nc1nc(Nc2ccccc2)sc1C(=O)c1ccc([N+](=O)[O-])cc1` [A(2), (4-Amino-2-phenylamino-thiazol-5-yl)-(4-nitrophenyl)-methanone]: the Ki is approximately 0.3 µM. The same measure, in the same setting: the figure for `Nc1nc(Nc2ccc(I)cc2)sc1C(=O)c1ccccc1[N+](=O)[O-]` [A(7), [4-Amino-2-(4-iodo-phenylamino)-thiazol-5-yl]-(2-nitro-phenyl)-methanone] is 0.31 µM; for `Nc1nc(Nc2cccnc2)sc1C(=O)c1ccccc1[N+](=O)[O-]` [A(11), [4-Amino-2-(pyridin-3-ylamino)-thiazol-5-yl]-(2-nitro-phenyl)-methanone] it is 0.13 µM. On the same count and under the same terms, the figure for `COc1ccc(C(=O)c2sc(Nc3ccc(C)cc3)nc2N)c(OC)c1` [A(13), [4-Amino-2-(p-tolylamino)-thiazol-5-yl]-(2,4-dimethoxyphenyl)-methanone] is 0.25 µM. Same read-out and setting: to `Cc1ccc(Nc2nc(N)c(C(=O)c3ccc(C)cc3C)s2)cc1` [A(14), [4-Amino-2-(p-tolylamino)-thiazol-5-yl]-(2,4-dimethylphenyl)-methanone] belongs 0.18 µM.

For the compound `COc1ccc(C(=O)c2sc(Nc3ccc(OCc4ccccc4)cc3)nc2N)cc1` [C(2), [4-Amino-2-(4-benzyloxy-phenylamino)-thiazol-5-yl]-(4-methoxy-phenyl)-methanone], the Ki was more than 5 µM. On the same count and under the same terms, to `Cc1c(C(=O)c2sc(Nc3ccc(N(C)C)cc3)nc2N)sc2ccccc12` [C(7), [4-Amino-2-((4-dimethylaminophenyl)amino)-thiazol-5-yl]-(3-methyl-benzo[b]thiophen-2-yl)-methanone] belongs 0.51 µM; to `Cc1c(C(=O)c2sc(Nc3ccc(N(C)C)cc3)nc2N)sc2ccc(Cl)cc12` [C(9)], 0.74 µM; to `Cc1c(C(=O)c2sc(Nc3ccc4nc[nH]c4c3)nc2N)sc2ccc(Cl)cc12` [C(10), [4-Amino-2-(1H-benzoimidazol-6-yl-amino)-thiazol-5-yl]-(5-chloro-3-methyl-benzo[b]thiophen-2-yl)-methanone], 0.68 µM. Take `Nc1nc(Nc2ccc3c(c2)OCO3)sc1C(=O)c1ccccc1[N+](=O)[O-]` [C(11), [4-Amino-2-(benzo[1,3]dioxol-5-yl-amino)-thiazol-5-yl]-(2-nitro-phenyl)-methanone]: the Ki turned out to be 0.13 µM. For the compound `Nc1nc(Nc2ccc([N+](=O)[O-])cc2)sc1C(=O)c1ccccc1[N+](=O)[O-]` [C(13), [4-Amino-2-(4-nitro-phenylamino)-thiazol-5-yl]-(2-nitro-phenyl)-methanone], the Ki is 0.051 µM.

For `Nc1nc(NC2CCCCC2)sc1C(=O)c1ccccc1[N+](=O)[O-]` [C(14), (4-Amino-2-cyclohexylamino-thiazol-5-yl)-(2-nitro-phenyl)-methanone], the Ki was 0.057 µM. Still for that read-out and setting: the figure for `CC(C)c1ccc(Nc2nc(N)c(C(=O)c3ccccc3[N+](=O)[O-])s2)cc1` [C(15), [4-Amino-2-(4-isopropyl-phenylamino)-thiazol-5-yl]-(2-nitro-phenyl)-methanone] is 0.057 µM. Same read-out and setting: the figure for `Nc1nc(NCCc2ccc(Cl)cc2)sc1C(=O)c1ccccc1[N+](=O)[O-]` [C(16), {4-Amino-2-[2-(4-chloro-phenyl)-ethylamino]-thiazol-5-yl}-(2-nitro-phenyl)-methanone] is 0.17 µM; for `CCN(CC)c1ccc(Nc2nc(N)c(C(=O)c3ccccc3[N+](=O)[O-])s2)cc1` [C(17), [4-Amino-2-(4-diethylamino-phenylamino)-thiazol-5-yl]-(2-nitro-phenyl)-methanone] it is 0.072 µM.

Still in this experiment, the particulars now being: superscript a: D-type cyclin is D3; μM; read-out: Ki CDK 4/D.
With `CCC(Nc1nc(N)c(C(=O)c2ccc([N+](=O)[O-])cc2)s1)C(=O)OC` (stereo in doubt) [C(6), Methyl 2(S)-[4-Amino-5-(4-nitro-benzoyl)-thiazol-2-ylamino]-butyrate], the Ki is more than 10 µM. The same measure, in the same setting: the figure for `Nc1nc(Nc2ccc([N+](=O)[O-])cc2)sc1C(=O)c1ccccc1` [A(8), [4-Amino-2-(4-nitro-phenylamino)-thiazol-5-yl]-phenyl-methanone] is more than 25 µM.

Values taken from patent US6569878B1, “Substituted 4-amino-thiazol-2-yl compounds as cyclin-dependent kinase inhibitors” (Agouron Pharmaceuticals Inc., priority 1997, dated 2003).
